Source: PubChem BioAssay AID602167 (The Scripps Research Institute Molecular Screening Center, 2012)
Activity calls are given as the source filed them. How the calls were made is not given here.

Each compound was assayed against transactivating tegument protein VP16 (Human herpesvirus 1), as a GAL4-VP16 activation-domain luciferase reporter (assay: GAL4-VP16 reporter repression curves – cell-based, luminescence, high throughput, SRC3 series, counter-screen for SRC3 inhibitor project, dose response (AID 602167)). Settings: VP16 transactivation luciferase reporter cells.

Question: Cc1cc(C(=O)CN2C(=O)c3ccccc3S2(=O)=O)c(C)n1C(C)C was tested. Which IC50 did it give?
Answer: inactive

Question: How did the IC50 turn out when CNc1ncnc(Sc2nc(N)nc3nc[nH]c23)c1[N+](=O)[O-] was run?
Answer: 4.85 µM

Question: Nc1ccc(-c2cc3ccccc3oc2=O)cc1 was tested. Which IC50 did it give?
Answer: > 35.9 µM (inactive)

Question: For COc1cc2c(c(OC)c1OC)-c1ccc(SC)c(=O)cc1C(NC=O)CC2 (stereo unspecified), which IC50 is on record?
Answer: inactive

Question: With C=CC[n+]1c(-c2ccc(C)cc2)csc1Nc1ccc(NC(C)=O)cc1 as the compound, how does the IC50 read?
Answer: > 35.9 µM (inactive)

Question: For Cc1cccc(C)c1NS(=O)(=O)c1ccc(-c2cnc(C3CC3)o2)cc1, which IC50 is on record?
Answer: > 12 µM (inactive)
